Laboratory results reported in patent publication US8796259B2, “N3-heteroaryl substituted triazoles and N5-heteroaryl substituted triazoles useful as axl inhibitors” (Rigel Pharmaceuticals, Inc., priority 2006, dated 2014).

The compounds below were run against T1, Axl (Homo sapiens, UniProt P30530) (assay: Phospho-Akt in-cell Western assay (inhibition of Axl activity, Axl-antibody cross-linking stimulation)). Settings: Hela cells, phospho-Akt readout; compounds of formula (Ia), Table 1.
T1 construct: endogenous in cells; host or cells: HeLa cells
T1 sequence (P30530 26-894): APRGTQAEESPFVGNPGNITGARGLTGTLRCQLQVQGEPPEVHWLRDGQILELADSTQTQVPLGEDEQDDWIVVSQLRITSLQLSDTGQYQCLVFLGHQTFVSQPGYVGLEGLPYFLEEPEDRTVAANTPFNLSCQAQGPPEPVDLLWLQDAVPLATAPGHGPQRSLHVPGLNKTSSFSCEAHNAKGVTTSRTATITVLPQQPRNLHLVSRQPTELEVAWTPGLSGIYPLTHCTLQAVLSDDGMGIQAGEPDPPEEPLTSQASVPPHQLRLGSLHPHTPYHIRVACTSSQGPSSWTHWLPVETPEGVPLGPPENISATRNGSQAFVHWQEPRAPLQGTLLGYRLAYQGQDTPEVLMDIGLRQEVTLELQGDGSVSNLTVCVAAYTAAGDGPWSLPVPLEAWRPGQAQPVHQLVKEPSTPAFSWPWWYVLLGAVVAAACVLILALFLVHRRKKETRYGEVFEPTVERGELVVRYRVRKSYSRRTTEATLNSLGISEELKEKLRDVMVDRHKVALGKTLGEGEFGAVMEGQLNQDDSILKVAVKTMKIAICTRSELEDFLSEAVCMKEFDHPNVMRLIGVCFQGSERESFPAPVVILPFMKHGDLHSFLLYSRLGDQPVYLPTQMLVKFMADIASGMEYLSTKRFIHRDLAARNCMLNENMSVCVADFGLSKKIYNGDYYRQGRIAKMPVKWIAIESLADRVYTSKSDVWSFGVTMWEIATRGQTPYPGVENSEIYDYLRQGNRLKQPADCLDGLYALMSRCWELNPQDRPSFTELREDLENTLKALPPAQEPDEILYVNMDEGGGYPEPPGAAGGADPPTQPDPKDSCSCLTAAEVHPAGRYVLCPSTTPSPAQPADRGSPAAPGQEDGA
Format: cell-based
Summary of the method: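 HeLa cells on poly-L-lysine were starved 24 h in 0.5% FCS/DMEM with 500 ng/mL Axl/Fc, pre-treated with compound 1 h at 37 °C, then stimulated 5 min by cross-linked mouse anti-Axl/biotin anti-mouse antibody clusters. After formaldehyde fixation, phospho-Akt was detected by rabbit anti-phospho-Akt and HRP secondary with chemiluminescence read-out.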

IC50	SMILES
< 1000 nM	Cc1csc2c(-n3nc(Nc4cnc5c(c4)C4CC(N6CCCC6)CC4C5)nc3N)nc(Cl)nc12 (centres unmarked) [compound 64, 1-(2-chloro-7-methylthieno [3,2-d]pyrimidin-4-yl)-N^3-(6-(pyrrolidin-1-yl)-4b,5,6,7,7a,8-hexahydro-pentaleno[2,1-b]pyridin-3-yl)-1H-1,2,4-triazole-3,5-diamine]
1000 to 10000 nM	Nc1nc(Nc2ccc3c(c2)OCCO3)nn1-c1nccc2ccccc12 [compound 4, N^3-(2,3-dihydrobenzo [b][1,4]dioxin-6-yl)-1-(isoquinolin-1-yl)-1H-1,2,4-triazole-3,5-diamine]
< 1000 nM	Cc1csc2c(-n3nc(Nc4ccc(N5CCN(C6CC6)CC5)nc4)nc3N)nc(Cl)nc12 [compound 68, 1-(2-chloro-7-methylthieno [3,2-d]pyrimidin-4-yl)-N^3-(6-(4-cyclopropyl-piperazin-1-yl)pyridin-3-yl)-1H-1,2,4-triazole-3,5-diamine]
< 1000 nM	Cc1csc2c(-n3nc(Nc4ccc(N5CCN(C)CC5)nc4)nc3N)nc(Cl)nc12 [compound 15, 1-(2-chloro-7-methylthieno [3,2-d]pyrimidine-4-yl)-N^3-(6-(4-methyl-piperazin-1-yl)pyridin-3-yl)-1H-1,2,4-triazole-3,5-diamine]
< 1000 nM	Cc1csc2c(-n3nc(Nc4ccc(C=CCN5CCC(N6CCCCC6)CC5)nc4)nc3N)ncnc12 [compound 129, 1-(7-methylthieno [3,2-d]pyrimidin-4-yl)-N^3-(2-(3-(4-piperidin-1-ylpiperidin-1-yl)propen-1-yl)pyridin-5-yl)-1H-1,2,4-triazole-3,5-diamine]
> 20000 nM	Cc1csc2c(-n3nc(Nc4cnc5c(c4)CN(C)CC5)nc3N)nc(Cl)nc12 [compound 14, 1-(2-chloro-7-methylthieno [3,2-d]pyrimidine-4-yl)-N^3-(6-methyl-5,6,7,8-tetrahydro-1,6-naphthyridin-3-yl)-1H-1,2,4-triazole-3,5-diamine]
< 1000 nM	Cc1cc(Nc2nc(N)n(-c3ncnc4c(C)csc34)n2)cnc1N1CCN(CC2CC2)CC1 [compound 94, 1-(7-methylthieno [3,2-d]pyrimidine-4-yl)-N^3-(6-(4-(cyclopropyl-methyl)piperazin-1-yl)-5-methyl-pyridine-3-yl)-1H-1,2,4-triazole-3,5-diamine]
< 1000 nM	Cc1csc2c(-n3nc(Nc4cnc5c(c4)CN(C4CCCC4)CC5)nc3N)nc(Cl)nc12 [compound 52, 1-(2-chloro-7-methylthieno [3,2-d]pyrimidine-4-yl)-N^3-(6-cyclopentyl-5,6,7,8-tetrahydro-1,6-naphthyridin-3-yl)-1H-1,2,4-triazole-3,5-diamine]
< 1000 nM	Cc1csc2c(-n3nc(Nc4ccc(C=CCN5CCC(N6CCN(C)CC6)CC5)nc4)nc3N)ncnc12 [compound 128, 1-(7-methylthieno [3,2-d]pyrimidin-4-yl)-N^3-(2-(3-(4-(4-methyl-piperazin-1-yl)piperidin-1-yl)propen-1-yl)pyridin-5-yl)-1H-1,2,4-triazole-3,5-diamine]
< 1000 nM	Cc1csc2c(-n3nc(Nc4cnc5c(c4)CC(N4CCCC4)CC5)nc3N)nc(Cl)nc12 (centres unmarked) [compound 82, 1-(2-chloro-7-methylthieno [3,2-d]pyrimidin-4-yl)-N^3-(6-pyrrolidin-1-yl-5,6,7,8-tetrahydro-quinolin-3-yl)-1H-1,2,4-triazole-3,5-diamine]
< 1000 nM	COc1cc2ncnc(-n3nc(Nc4ccc(C=CCN5CCC(N(C)C)CC5)nc4)nc3N)c2cc1OC [compound 69, 1-(6,7-dimethoxy-quinazoline-4-yl)-N^3-(6-(3-(4-dimethyl-amino-piperidin-1-yl)propenyl)pyridin-3-yl)-1H-1,2,4-triazole-3,5-diamine]
< 1000 nM	Cc1csc2c(-n3nc(Nc4ccc(N5CCC(N6CCN(C)CC6)CC5)nc4)nc3N)nc(Cl)nc12 [compound 22]
1000 to 10000 nM	COc1cc2ncnc(-n3nc(Nc4ccc5sc(C(=O)N6CCN(CCN(C)C)CC6)cc5c4)nc3N)c2cc1OC [compound 40, 1-(6,7-dimethoxy-quinazoline-4-yl)-N^3-(2-(1-(4-(2-(dimethyl-amino)ethyl)piperazin-1-yl)oxomethyl)benzo[b]thio-phen-5-yl)-1H-1,2,4-triazole-3,5-diamine]
< 1000 nM	Cc1csc2c(-n3nc(Nc4cnc5[nH]ccc5c4)nc3N)nc(Cl)nc12 [compound 32, 1-(2-chloro-7-methylthieno [3,2-d]pyrimidin-4-yl)-N^3-(1H-pyrrolo[2,3-b]pyridin-5-yl)-1H-1,2,4-triazole-3,5-diamine]
< 1000 nM	Cc1cc(Nc2nc(N)n(-c3ncnc4c(C)csc34)n2)cnc1N1CCN([C@H]2CC3CCC2C3)CC1 (stereo partly drawn) [compound 111, 1-(7-methylthieno [3,2-d]pyrimidin-4-yl)-N^3-(2-(4-(2S)-bicyclo[2.2.1]heptan-2-ylpiperazin-1-yl)-3-methylpyridin-5-yl)-1H-1,2,4-triazole-3,5-diamine]
< 1000 nM	Cc1csc2c(-n3nc(Nc4ccc(/C=C/CN5CCC(N(C)C)C5)nc4)nc3N)ncnc12 (centres unmarked) [compound 120, 1-(7-methylthieno [3,2-d]pyrimidin-4-yl)-N^3-(2-(3-(3-dimethyl-amino-pyrrolidin-1-yl)propen-1-yl)pyridin-5-yl)-1H-1,2,4-triazole-3,5-diamine]
< 1000 nM	Cc1cc(Nc2nc(N)n(-c3nc4ccccc4c4ccccc34)n2)cnc1N1CCC(N2CCCC2)CC1 [compound 43, 1-(phenanthridin-6-yl)-N^3-(6-(4-(pyrrolidin-1-yl)piperidin-1-yl)-5-methylpyridin-3-yl)-1H-1,2,4-triazole-3,5-diamine]
< 1000 nM	Cc1csc2c(-n3nc(Nc4ccc(N5CCN(CC6CC6)[C@@H](C)C5)nc4)nc3N)nc(Cl)nc12 [compound 117, 1-(2-chloro-7-methylthieno [3,2-d]pyrimidin-4-yl)-N^3-(2-(4-cyclopropyl-methyl-3-(S)-methyl-piperazin-1-yl)pyridin-5-yl)-1H-1,2,4-triazoie-3,5-diamine]
< 1000 nM	Cc1csc2c(-n3nc(Nc4ccc(N5CCC(N6CCCC6)CC5)nc4)nc3N)nc(Cl)nc12 [compound 17, 1-(2-chloro-7-methyithieno [3,2-d]pyrimidine-4-yl)-N^3-(6-(4-(pyrrolidin-1-yl)piperidin-1-yl)pyridine-3-yl)-1H-1,2,4-triazole-3,5-diamine]
> 20000 nM	COc1cc2ncnc(-n3nc(Nc4ccc(Br)nc4)nc3N)c2cc1OC [compound 59, 1-(6,7-dimethoxy-quinazoline-4-yl)-N^3-(6-bromopyridin-3-yl)-1H-1,2,4-triazole-3,5-diamine]
< 1000 nM	Cc1csc2c(-n3nc(Nc4cnc(N5CCC(N6CCCC6)CC5)nc4)nc3N)nc(Cl)nc12 [compound 91, 1-(2-chloro-7-methylthieno [3,2-d]pyrimidin-4-yl)-N^3-(2-(4-pyrrolidin-1ylpiperidin-1-yl)pyrimidin-5-yl)-1H-1,2,4-triazole-3,5-diamine]
< 1000 nM	Cc1csc2c(-n3nc(Nc4ccc(C=CCN5CCN(C(C)C)CC5)nc4)nc3N)ncnc12 [compound 124, 1-(7-methylthieno [3,2-d]pyrimidin-4-yl)-N^3-(2-(3-(4-isopropyl-piperazin-1-yl)propen-1-yl)pyridin-5-yl)-1H-1,2,4-triazole-3,5-diamine]
< 1000 nM	CCN(CC)C1CCN(CC=Cc2ccc(Nc3nc(N)n(-c4ncnc5cc(OC)c(OC)cc45)n3)cn2)C1 (centres unmarked) [compound 78, 1-(6,7-dimethoxy-quinazoline-4-yl)-N^3-(6-(3-(3-(diethylamino)pyrrolidin-1-yl)propenyl)pyridin-3-yl)-1H-1,2,4-triazole-3,5-diamine]
< 1000 nM	Cc1cc(Nc2nc(N)n(-c3ncnc4c(C)csc34)n2)cnc1N1CCN([C@H]2C[C@@H]3CC[C@H]2C3)[C@@H](C)C1 [compound 106, 1-(7-methylthieno [3,2-d]pyrimidin-4-yl)-N^3-(2-(3-(S)-methyl-4-(1S,2S,4R)-bicyclo[2.2.1]heptan-2-ylpiperazin-1-yl)-3-methylpyridin-5-yl)-1H-1,2,4-triazole-3,5-diamine]
< 1000 nM	Cc1csc2c(-n3nc(Nc4cnc5c(c4)CN(C4CC6CCC4C6)CC5)nc3N)nc(Cl)nc12 (centres unmarked) [compound 102, 1-(2-chloro-7-methylthieno [3,2-d]pyrimidin-4-yl)-N^3-(6-bicyclo[2.2.1]heptan-2-yl-5,6,7,8-tetrahydro-1,6-naphthyridin-3-yl)-1H-1,2,4-triazole-3,5-diamine]
< 1000 nM	COc1cc2ncnc(-n3nc(Nc4ccc(C=CCN5CCC(N6CCCCC6)CC5)nc4)nc3N)c2cc1OC [compound 67, 1-(6,7-dimethoxy-quinazoline-4-yl)-N^3-(6-(3-(4-piperidin-1-ylpiperidin-1-yl)propenyl)pyridin-3-yl)-1H-1,2,4-triazole-3,5-diamine]
